Measured values as given in patent US11912701B2, “Protein kinase inhibitors for promoting liver regeneration or reducing or preventing hepatocyte death” (HEPAREGENIX GMBH, priority 2018, dated 2024).

Experiments:
Type in all cases: biochemical
[1] = molecular target: T1, MKK7 (Homo sapiens, UniProt O14733); experiment: 33PanQinase enzyme assay, MKK7; set-up: purchased ProQinase GmbH, Freiburg, Germany (33PanQinase Assay Service); details: ratio IC50(MKK7)/IC50(MKK4)
T1 sequence (O14733 1-419): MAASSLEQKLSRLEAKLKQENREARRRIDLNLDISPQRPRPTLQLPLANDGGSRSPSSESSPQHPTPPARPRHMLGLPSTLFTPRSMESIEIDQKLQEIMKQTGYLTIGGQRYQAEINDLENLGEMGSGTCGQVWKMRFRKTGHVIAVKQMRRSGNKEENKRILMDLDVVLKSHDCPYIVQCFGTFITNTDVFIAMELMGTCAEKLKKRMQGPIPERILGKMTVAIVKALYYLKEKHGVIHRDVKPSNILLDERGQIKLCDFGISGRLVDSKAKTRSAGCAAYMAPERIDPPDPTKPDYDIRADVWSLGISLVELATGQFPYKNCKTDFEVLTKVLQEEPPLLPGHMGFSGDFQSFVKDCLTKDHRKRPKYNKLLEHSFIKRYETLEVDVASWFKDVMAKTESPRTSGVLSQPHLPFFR
Method in brief: (§1)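 Radiometric kinase reactions with ATP, test compound in DMSO and enzyme/substrate mix were incubated 60 min at 30 °C, stopped with 2% H3PO4 and washed; incorporated 33Pi was counted by scintillation. Single-concentration data are given as % residual activity; IC50 values come from least-squares curve fits.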

[2] = molecular target: T2, MKK4 (Homo sapiens, UniProt P45985); experiment: 33PanQinase enzyme assay, MKK4; details: assay 'IC50'; read-out: Potency MKK4 (IC50)
T2 construct: purchased ProQinase GmbH, Freiburg, Germany (33PanQinase Assay Service)
T2 sequence (P45985 1-399): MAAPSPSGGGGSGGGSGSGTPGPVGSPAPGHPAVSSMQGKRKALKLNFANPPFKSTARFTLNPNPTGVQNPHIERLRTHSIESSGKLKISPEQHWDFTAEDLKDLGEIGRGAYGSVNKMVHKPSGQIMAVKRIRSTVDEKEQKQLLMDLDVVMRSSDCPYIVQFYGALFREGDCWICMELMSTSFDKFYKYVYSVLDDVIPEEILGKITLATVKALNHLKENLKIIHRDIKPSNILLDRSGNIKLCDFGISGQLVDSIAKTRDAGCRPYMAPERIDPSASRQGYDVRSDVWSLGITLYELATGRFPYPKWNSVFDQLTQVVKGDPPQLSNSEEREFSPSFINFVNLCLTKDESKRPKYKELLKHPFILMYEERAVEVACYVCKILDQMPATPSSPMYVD
Method in brief: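 Radiometric 33PanQinase assay: kinase, substrate, ATP and compound in standard buffer, 60 min at 30 °C; 33Pi incorporation read by scintillation counting.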

[3] = molecular target: T3, BRaf (Homo sapiens, UniProt P15056); experiment: 33PanQinase enzyme assay, BRaf; details: ratio IC50(BRaf)/IC50(MKK4)
T3 construct: purchased ProQinase GmbH, Freiburg, Germany (33PanQinase Assay Service)
Method in brief: as §1

[4] = molecular target: JNK1 (Homo sapiens, UniProt P45983); experiment: 33PanQinase enzyme assay, JNK1; set-up: purchased ProQinase GmbH, Freiburg, Germany (33PanQinase Assay Service); details: ratio IC50(JNK1)/IC50(MKK4)
Method in brief: as §1

T3 sequence (P15056 whole entry, species assumed): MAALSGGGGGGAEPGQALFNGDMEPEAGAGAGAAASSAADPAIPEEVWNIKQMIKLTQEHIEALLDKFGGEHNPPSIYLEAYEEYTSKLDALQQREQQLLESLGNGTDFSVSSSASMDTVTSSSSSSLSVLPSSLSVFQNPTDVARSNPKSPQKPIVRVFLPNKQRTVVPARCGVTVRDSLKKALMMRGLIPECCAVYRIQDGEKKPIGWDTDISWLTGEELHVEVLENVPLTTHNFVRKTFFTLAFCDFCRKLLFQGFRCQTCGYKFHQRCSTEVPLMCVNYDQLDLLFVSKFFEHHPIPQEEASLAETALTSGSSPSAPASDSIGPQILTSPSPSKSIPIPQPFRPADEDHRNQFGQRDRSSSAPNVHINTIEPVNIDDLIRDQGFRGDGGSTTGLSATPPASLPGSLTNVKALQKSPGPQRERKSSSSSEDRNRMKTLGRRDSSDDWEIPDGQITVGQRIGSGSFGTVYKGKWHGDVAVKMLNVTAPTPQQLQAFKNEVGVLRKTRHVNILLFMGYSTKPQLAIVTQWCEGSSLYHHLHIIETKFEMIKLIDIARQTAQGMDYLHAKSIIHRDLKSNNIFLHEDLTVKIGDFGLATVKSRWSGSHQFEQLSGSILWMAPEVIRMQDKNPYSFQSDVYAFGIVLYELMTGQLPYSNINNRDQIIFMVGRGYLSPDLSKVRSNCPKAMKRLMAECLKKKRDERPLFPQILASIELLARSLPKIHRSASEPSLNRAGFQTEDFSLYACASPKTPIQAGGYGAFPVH
JNK1, sequence (P45983 whole entry): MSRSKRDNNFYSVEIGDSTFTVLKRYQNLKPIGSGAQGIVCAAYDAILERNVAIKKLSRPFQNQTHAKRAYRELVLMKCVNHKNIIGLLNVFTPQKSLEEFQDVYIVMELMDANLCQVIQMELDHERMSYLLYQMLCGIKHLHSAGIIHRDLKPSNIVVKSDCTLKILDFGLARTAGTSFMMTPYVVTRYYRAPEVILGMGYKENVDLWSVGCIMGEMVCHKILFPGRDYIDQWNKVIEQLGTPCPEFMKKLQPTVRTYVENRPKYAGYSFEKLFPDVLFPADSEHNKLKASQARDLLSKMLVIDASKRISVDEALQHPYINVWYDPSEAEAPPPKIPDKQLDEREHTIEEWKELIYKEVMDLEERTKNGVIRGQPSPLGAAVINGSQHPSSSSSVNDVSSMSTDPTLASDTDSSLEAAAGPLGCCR

Row | Structure (SMILES) | Selectivity IVIKK7, IC50(off-target)/IC50(MKK4) [1] | IC50 [2] | Selectivity Braf, IC50(off-target)/IC50(MKK4) [3] | Selectivity JNK1, IC50(off-target)/IC50(MKK4) [4]
1 | CCCS(=O)(=O)Nc1c(F)ccc(C(=O)c2c[nH]c3ncc(-c4ccc(S(C)(=N)=O)nc4)cc23)c1F (stereo not shown) [Example 164, N-(2,6-difluoro-3-(5-(6-(S-methylsulfonimidoyl)pyridin-3-yl)-1H-pyrrolo[2,3-b]pyridine-3-carbonyl)phenyl)propane-1-sulfonamide] | +++ (IC50(off-target)/IC50(MKK4) > 100) | < 100 nM | ++ (100 ≥ IC50(off-target)/IC50(MKK4) > 10) | ++ (100 ≥ IC50(off-target)/IC50(MKK4) > 10)
2 | CCCS(=O)(=O)Nc1c(F)ccc(C(=O)c2c[nH]c3ncc(-c4ccc(C)nc4C)cc23)c1F [Example 165, N-(3-(5-(2,6-dimethylpyridin-3-yl)-1H-pyrrolo[2,3-b]pyridine-3-carbonyl)-2,6-difluorophenyl)propane-1-sulfonamide] | +++ (IC50(off-target)/IC50(MKK4) > 100) | < 100 nM | +++ (IC50(off-target)/IC50(MKK4) > 100) | +++ (IC50(off-target)/IC50(MKK4) > 100)
3 | CCCS(=O)(=O)Nc1c(F)ccc(C(=O)c2c[nH]c3ncc(-c4ccc(C)nc4Cl)cc23)c1F [Example 166, N-(3-(5-(2-chloro-6-methylpyridin-3-yl)-1H-pyrrolo[2,3-b]pyridine-3-carbonyl)-2,6-difluorophenyl)propane-1-sulfonamide] | +++ (IC50(off-target)/IC50(MKK4) > 100) | < 100 nM | +++ (IC50(off-target)/IC50(MKK4) > 100) | +++ (IC50(off-target)/IC50(MKK4) > 100)
4 | CCCS(=O)(=O)Nc1c(F)ccc(C(=O)c2c[nH]c3ncc(-c4cnc(C5CC5)cc4C)cc23)c1F [Example 167, N-(3-(5-(6-cyclopropyl-4-methylpyridin-3-yl)-1H-pyrrolo[2,3-b]pyridine-3-carbonyl)-2,6-difluorophenyl)propane-1-sulfonamide] | +++ (IC50(off-target)/IC50(MKK4) > 100) | < 100 nM | +++ (IC50(off-target)/IC50(MKK4) > 100) | +++ (IC50(off-target)/IC50(MKK4) > 100)
5 | CCCS(=O)(=O)Nc1c(F)ccc(C(=O)c2c[nH]c3ncc(-c4c(C)cc(C)nc4C)cc23)c1F [Example 168, N-(2,6-difluoro-3-(5-(2,4,6-trimethylpyridin-3-yl)-1H-pyrrolo[2,3-b]pyridine-3-carbonyl)phenyl)propane-1-sulfonamide] | +++ (IC50(off-target)/IC50(MKK4) > 100) | 100 to 1000 nM | +++ (IC50(off-target)/IC50(MKK4) > 100) | ++ (100 ≥ IC50(off-target)/IC50(MKK4) > 10)
6 | CCCS(=O)(=O)Nc1c(F)ccc(C(=O)c2c[nH]c3ncc(-c4ccc(C5CC5)nc4C)cc23)c1F [Example 170, N-(3-(5-(6-cyclopropyl-2-methylpyridin-3-yl)-1H-pyrrolo[2,3-b]pyridine-3-carbonyl)-2,6-difluorophenyl)propane-1-sulfonamide] | +++ (IC50(off-target)/IC50(MKK4) > 100) | < 100 nM | +++ (IC50(off-target)/IC50(MKK4) > 100) | +++ (IC50(off-target)/IC50(MKK4) > 100)
7 | CCCS(=O)(=O)Nc1c(F)ccc(C(=O)c2c[nH]c3ncc(-c4cnc(C)cc4C)cc23)c1F [Example 171, N-(3-(5-(4,6-dimethylpyridin-3-yl)-1H-pyrrolo[2,3-b]pyridine-3-carbonyl)-2,6-difluorophenyl)propane-1-sulfonamide] | +++ (IC50(off-target)/IC50(MKK4) > 100) | < 100 nM | +++ (IC50(off-target)/IC50(MKK4) > 100) | +++ (IC50(off-target)/IC50(MKK4) > 100)
8 | Cc1cnccc1-c1cnc2[nH]cc(C(=O)c3ccc(F)c(NS(=O)(=O)CCC(F)(F)F)c3F)c2c1 [Example 172, N-(2,6-difluoro-3-(5-(3-methylpyridin-4-yl)-1H-pyrrolo[2,3-b]pyridine-3-carbonyl)phenyl)-3,3,3-trifluoropropane-1-sulfonamide] | +++ (IC50(off-target)/IC50(MKK4) > 100) | < 100 nM | +++ (IC50(off-target)/IC50(MKK4) > 100) | +++ (IC50(off-target)/IC50(MKK4) > 100)
9 | CCCS(=O)(=O)Nc1c(F)ccc(C(=O)c2c[nH]c3ncc(-c4ccncc4Cl)cc23)c1F [Example 173, N-(3-(5-(3-chloropyridin-4-yl)-1H-pyrrolo[2,3-b]pyridine-3-carbonyl)-2,6-difluorophenyl)propane-1-sulfonamide] | +++ (IC50(off-target)/IC50(MKK4) > 100) | < 100 nM | +++ (IC50(off-target)/IC50(MKK4) > 100) | ++ (100 ≥ IC50(off-target)/IC50(MKK4) > 10)
10 | CCCS(=O)(=O)Nc1c(F)ccc(C(=O)c2c[nH]c3ncc(-c4cnc(N5CCNCC5)nc4)cc23)c1F [Example 185, N-(2,6-difluoro-3-(5-(2-(piperazin-1-yl)pyrimidin-5-yl)-1H-pyrrolo[2,3-b]pyridine-3-carbonyl)phenyl)propane-1-sulfonamide] | +++ (IC50(off-target)/IC50(MKK4) > 100) | 100 to 1000 nM | + (10 ≥ IC50(off-target)/IC50(MKK4) > 3) | ++ (100 ≥ IC50(off-target)/IC50(MKK4) > 10)
11 | CCCS(=O)(=O)Nc1c(F)ccc(C(=O)c2c[nH]c3ncc(-c4cnc(C)nc4Cl)cc23)c1F [Example 186, N-(3-(5-(4-chloro-2-methylpyrimidin-5-yl)-1H-pyrrolo[2,3-b]pyridine-3-carbonyl)-2,6-difluorophenyl)propane-1-sulfonamide] | +++ (IC50(off-target)/IC50(MKK4) > 100) | < 100 nM | +++ (IC50(off-target)/IC50(MKK4) > 100) | +++ (IC50(off-target)/IC50(MKK4) > 100)
12 | CCCS(=O)(=O)Nc1c(F)ccc(C(=O)c2c[nH]c3ncc(-c4cnc(NCCOC)nc4)cc23)c1F [Example 187, N-(2,6-difluoro-3-(5-(2-((2-methoxyethyl)amino)pyrimidin-5-yl)-1H-pyrrolo[2,3-b]pyridine-3-carbonyl)phenyl)propane-1-sulfonamide] | +++ (IC50(off-target)/IC50(MKK4) > 100) | 100 to 1000 nM | +++ (IC50(off-target)/IC50(MKK4) > 100) | +++ (IC50(off-target)/IC50(MKK4) > 100)
13 | CCCS(=O)(=O)Nc1c(F)ccc(C(=O)c2c[nH]c3ncc(-c4cnc(N5CCOCC5)nc4)cc23)c1F [Example 188, N-(2,6-difluoro-3-(5-(2-morpholinopyrimidin-5-yl)-1H-pyrrolo[2,3-b]pyridine-3-carbonyl)phenyl)propane-1-sulfonamide] | +++ (IC50(off-target)/IC50(MKK4) > 100) | < 100 nM | +++ (IC50(off-target)/IC50(MKK4) > 100) | +++ (IC50(off-target)/IC50(MKK4) > 100)
